This is an account of results in patent US6352989B1, “Nitrogenous heterocyclic derivatives and medicine thereof” (Eisai Co., Ltd., priority 1998, dated 2002).

For data set [1], the target named is PDE4D (Homo sapiens, UniProt Q08499). The data set can be described thus: Inhibitory action on PDE4 (homogenate of BHK cells expressing cloned human PDE4D, [3H]-cAMP hydrolysis). It is filed as biochemical. To be noted: average in triplicate measurements; 1 μM [3H]-cAMP substrate; read-out: PDE4 Inhibition IC50. The method, then:
Inhibitory Action on PDE4: PDE4D was cloned from human placental mRNA by PCR techniques, and cDNA after an alternative spliced site (Mol. Cell. Biol., 13, 6558, 1993) was expressed in BHK cells. Two clones of BHK cells expressing PDE4 activity which was 100 or more times as high as endogenous PDE4 activity were obtained, and one of the clones was cultured in a large amount, and its homogenate was used as an enzyme source of PDE4.
50 mM Tris-HCl (pH 8.0), 0.1 mM EGTA, 0.1 mM MgCl2, 1 μM [^3H]-cGMP (100,000 dpm/tube) or 1 μM [^3H]-cAMP (100,000 dpm/tube) was added to the above homogenate, and 0.2 ml of the mixture was incubated at 30° C. for 10 to 20 minutes in the presence or absence of a test compound. The enzyme reaction was stopped by incubating the mixture at 95° C. for 1.5 minutes, and after cooling on ice, 50 μl nucleotidase (10 units/ml) was added thereto and incubated at 30° C. for 10 minutes. 550 μl of AG1-X2 resin slurry (H2O:resin=2:1) was added to the reaction mixture, then left at 4° C. for 10 minutes and centrifuged (10,000 rpm, 2.5 minutes, 4° C.), and 450 μl of the supernatant was measured for radioactivity.
The activity was compared in terms of IC50 (concentration of the compound at which 50% of the enzyme activity is inhibited) IC50 was determined by plotting of the concentration of cAMP as the substrate and the concentration of the compound on logarithmic graph paper. The results shown in Table 1 are the average in triplicate measurements. The test compound was first dissolved in DMSO and then diluted with the above-mentioned buffer for use.

PDE4D, sequence (Q08499 303-809 limits assumed): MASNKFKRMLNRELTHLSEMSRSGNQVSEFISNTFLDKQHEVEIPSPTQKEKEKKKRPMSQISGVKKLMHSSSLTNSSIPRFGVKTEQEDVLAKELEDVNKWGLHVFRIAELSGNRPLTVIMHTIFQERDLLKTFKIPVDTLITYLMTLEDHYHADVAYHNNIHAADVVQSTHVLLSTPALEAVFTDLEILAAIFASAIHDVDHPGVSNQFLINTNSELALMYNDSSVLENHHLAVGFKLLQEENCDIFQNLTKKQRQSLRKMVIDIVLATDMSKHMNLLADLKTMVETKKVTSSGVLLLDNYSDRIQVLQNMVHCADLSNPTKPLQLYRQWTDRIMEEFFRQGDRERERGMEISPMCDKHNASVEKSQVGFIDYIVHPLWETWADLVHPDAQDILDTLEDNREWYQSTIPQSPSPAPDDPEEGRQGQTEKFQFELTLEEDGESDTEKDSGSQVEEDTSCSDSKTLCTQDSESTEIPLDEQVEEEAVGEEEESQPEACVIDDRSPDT

As a reminder, the IC50 is the concentration that inhibits the measured activity by half. A word on the melting point: it is the temperature, or range, at which the solid turns liquid. Consider `CNc1nc(-c2cccc(NC(=O)c3ccc(OC)c(OC4CCCC4)c3)c2)c2cc(OC)c(OC)cc2n1` [Example 17, 4-[3-(3-Cyclopentyloxy-4-methoxybenzoylamino)phenyl]-6,7-dimethoxy-2-methylaminoquinazoline], for which the melting point was in the range of 129 to 131 °C. Also, the IC50 in data set [1] amounted to 4.2 nM.

`CNc1nc(-c2cccc(NC(=O)c3ccc(O)cc3)c2)c2cc(OC)c(OC)cc2n1` [Example 21, 6,7-Dimethoxy-4-[3-(4-hydroxybenzoylamino)phenyl]-2-methylaminoquinazoline] displayed a melting point of 178 to 180 °C. In addition, in data set [1], the IC50 is 2.2 nM.

Molecule `CNc1nc(-c2cccc(NC(=O)c3ccc(N(C)C)nc3)c2)c2cc(OC)c(OC)cc2n1` [Example 30, 6,7-Dimethoxy-4-[3-(6-dimethylaminonicotinoylamino)phenyl]-2-methylaminoquinazoline] yielded a melting point of 149 to 151 °C. For the same molecule, the IC50 in data set [1] amounted to 2.6 nM.

The molecule `CNc1nc(-c2cccc(NC(=O)c3ccc(N4CCCC4)nc3)c2)c2cc(OC)c(OC)cc2n1` [Example 31, 6,7-Dimethoxy-2-methylamino-4-[3-(6-pyrrolidinonicotinoylamino)phenyl]quinazoline] showed a melting point of 239 to 241 °C. The IC50 in data set [1] came out at 2.5 nM.

With `CNc1nc(-c2cccc(NC(=O)c3ccnc(N4CCCC4)c3)c2)c2cc(OC)c(OC)cc2n1` [Example 34], the melting point was in the range of 135 to 137 °C. The IC50 in data set [1] worked out at 3.1 nM.

`CNc1nc(-c2cccc(N3Cc4ccccc4C3)c2)c2cc(OC)c(OC)cc2n1` [Example 44, 6,7-Dimethoxy-4-[3-(2-isoindolynyl)phenyl]-2-methylaminoquinazoline] came in with a melting point of 194 to 196 °C. Moreover, in data set [1], the IC50 stood at 2.5 nM.

The molecule `CNc1nc(-c2cccc(N3Cc4ccccc4C3=O)c2)c2cc(OC)c(OC)cc2n1` [Example 45, 6,7-Dimethoxy-4-[3-(1-oxo-2-isoindolynyl)phenyl]-2-methylaminoquinazoline] displayed a melting point of 230 to 232 °C. In data set [1], the IC50 came out at 0.72 nM.

`CNc1nc(-c2cccc(-c3cncc4ccccc34)c2)c2cc(OC)c(OC)cc2n1` [Example 51, 6,7-Dimethoxy-2-methylamino-4-[3-(4-isoquinolyl)phenyl]quinazoline] gave a melting point of 181 to 183 °C. Moreover, the IC50 in data set [1] turned out to be 3.2 nM.

Regarding `CNc1nc(-c2cccc(-c3ccc(SC)cc3)c2)c2cc(OC)c(OC)cc2n1` [Example 52, 6,7-Dimethoxy-2-methylamino-4-(4′-methylthio-3-biphenylyl)quinazoline], the melting point was in the range of 140 to 142 °C. Also, the IC50 in data set [1] came out at 1.8 nM.

`CNc1nc(-c2cccc(-c3ccc([S+](C)[O-])cc3)c2)c2cc(OC)c(OC)cc2n1` (centres unmarked) [Example 53, 6,7-Dimethoxy-2-methylamino-4-(4′-methylsulfinyl-3-biphenylyl)quinazoline] yielded a melting point of 153 to 155 °C. Besides, in data set [1], the concentration for half-maximal inhibition (IC50) came out at 0.63 nM.

For the molecule `CNc1nc(-c2cccc(-c3cccc(SC)c3)c2)c2cc(OC)c(OC)cc2n1` [Example 54, 6,7-Dimethoxy-2-methylamino-4-(3′-methylthio-3-biphenylyl)quinazoline], the melting point was 195 to 197 °C. Besides, the IC50 in data set [1] turned out to be 1.7 nM.

As to `CNc1nc(-c2cccc(CCc3ccccc3)c2)c2cc(OC)c(OC)cc2n1` [Example 66, 6,7-Dimethoxy-2-methylamino-4-[3-(2-phenylethyl)phenyl]quinazoline], the melting point was 95 to 97 °C.

Molecule `CNc1nc(-c2cccc(C#Cc3cccnc3)c2)c2cc(OC)c(OC)cc2n1` [Example 67, 6,7-Dimethoxy-2-methylamino-4-[3-[2-(3-pyridyl)ethynyl]phenyl]quinazoline] had a melting point of 103 to 105 °C.

`CNc1ccc(C#Cc2cccc(-c3nc(NC)nc4cc(OC)c(OC)cc34)c2)cn1` [Example 68, 6,7-Dimethoxy-2-methylamino-4-[3-[2-(6-methylamino-3-pyridyl)ethynyl]phenyl]quinazoline] displayed a melting point of 136 to 138 °C.

In turn, `CNc1nc(-c2cccc(/C=C/c3ccccc3)c2)c2cc(OC)c(OC)cc2n1` [Example 69, 6,7-Dimethoxy-2-methylamino-4-[3-(2-phenylethenyl)phenyl]quinazoline] returned a melting point of 110 to 112 °C.

Take `CNc1nc(-c2cccc(C(=O)Nc3ccccc3)c2)c2cc(OC)c(OC)cc2n1` [Example 70, 6,7-Dimethoxy-2-methylamino-4-(3-phenylcarbamoylphenyl)quinazoline]: the melting point was 242 to 244 °C.

`CNc1nc(-c2cccc(C(=O)Nc3cccnc3)c2)c2cc(OC)c(OC)cc2n1` [Example 71, 6,7-Dimethoxy-2-methylamino-4-[3-(3-pyridyl)carbamoylphenyl]quinazoline] returned a melting point of 238 to 240 °C.

Molecule `CNc1nc(-c2cccc(OCc3ccccc3)c2)c2cc(OC)c(OC)cc2n1` [Example 72, 4-(3-Benzyloxyphenyl)-6,7-dimethoxy-2-methylaminoquinazoline] registered a melting point of 116 to 118 °C.

Regarding `CNc1nc(-c2cccc(Oc3ccccc3)c2)c2cc(OC)c(OC)cc2n1` [Example 73, 6,7-Dimethoxy-2-methylamino-4-(3-phenoxylphenyl)quinazoline], the melting point lay in the range of 157 to 159 °C.

In turn, `CNc1nc(-c2ccc(-c3ccccc3)s2)c2cc(OC)c(OC)cc2n1` [Example 74, 6,7-Dimethoxy-2-methylamino-4-(5-phenyl-2-thienyl)quinazoline] came in with a melting point of 201 to 203 °C.

Take `CNc1nc(-c2cncc(-c3ccccc3)c2)c2cc(OC)c(OC)cc2n1` [Example 75, 6,7-Dimethoxy-2-methylamino-4-(5-phenyl-3-pyridyl)quinazoline]: the melting point was 177 to 179 °C.

`CNc1nc(-c2cncc(Br)c2)c2cc(OC)c(OC)cc2n1` [Example 76, 4-(5-Bromo-3-pyridyl)-6,7-dimethoxy-2-methylaminoquinazoline] showed a melting point of 228 to 230 °C.

`CNc1nc(-c2cncc(-c3ccc(SC)cc3)c2)c2cc(OC)c(OC)cc2n1` [Example 77, 6,7-Dimethoxy-2-methylamino-4-[5-(4-methylthiophenyl)-3-pyridyl]quinazoline] came in with a melting point of 170 to 172 °C.

As for `CNc1nc(-c2cncc(C#Cc3cccnc3)c2)c2cc(OC)c(OC)cc2n1` [Example 78, 6,7-Dimethoxy-2-methylamino-4-[5-[2-(3-pyridyl)ethynyl]-3-pyridyl]quinazoline], the melting point was 208 to 211 °C.

`CNc1ccc(C#Cc2cncc(-c3nc(NC)nc4cc(OC)c(OC)cc34)c2)cn1` [Example 79, 6,7-Dimethoxy-2-methylamino-4-[5-[2-(6-methylamino-3-pyridyl)ethynyl]-3-pyridyl]quinazoline] gave a melting point of 160 to 162 °C.

Molecule `CNc1nc(-c2cccc(NC(=O)c3ccccc3)c2)c2cc(OCc3ccccc3)c(OC)cc2n1` [Example 81, 4-(3-Benzoylaminophenyl)-6-benzyloxy-7-methoxy-2-methylaminoquinazoline] showed a melting point of 204 to 206 °C.

The molecule `CNc1nc(-c2cccc(NC(=O)c3ccccc3)c2)c2cc(O)c(OC)cc2n1` [Example 82, 4-(3-Benzoylaminophenyl)-6-hydroxy-7-methoxy-2-methylaminoquinazoline] showed a melting point of 145 to 147 °C.
